Results: publication PMC6273913, “New α-Methylene-γ-Butyrolactone Derivatives as Potential Fungicidal Agents: Design, Synthesis and Antifungal Activities” (Molecules, 2016)
Like-named read-outs stand apart in the source and are kept apart here.

How the values were obtained:
B. cinerea = experiment: Spore germination assay, fungicidal activity against B. cinerea; type: cell-based, Botrytis cinerea; conditions: Botrytis cinerea, in vitro, n = 3
Description: (§1) The fungal pathogens C. lagenarium and B. cinerea was provided by the Agricultural Culture Collection of China (Yangling, Shaanxi, China). C. lagenarium was cultured for 2 weeks at 25 ± 1 °C on potato dextrose agar (PDA) while B. cinerea was cultured at 20 °C on the same medium after being retrieved from the storage tube. Plates were flooded with sterile distilled water, and then conidia were scraped with a glass rod. Mycelial debris was removed by filtration. The spores were harvested and suspended in sterile distilled water containing 0.1% (v/v) Tween 20. The concentration of the spore suspension was adjusted to 1.0 × 10^6 spores/mL with sterilized distilled water following.
(§2) The tested samples (10.0 mg) dissolved in acetone (0.1 mL) were diluted with sterile distilled water to prepare 10.0 mL stock solution, which was further diluted to prepare test solutions in which the final concentration of acetone was <1% (v/v). A series of concentrations of tested samples and one control (1% acetone with sterile distilled water) were separately tested for spore germination of C. lagenarium or B. cinerea. The samples were inoculated with spore suspension of C. lagenarium or B. cinerea containing 1.0 × 10^6 spores/mL. Aliquots of 10 μL of prepared spore suspension were placed on separate glass slides in triplicate. Slides containing the spores were incubated in a moisture chamber at 25 °C for 6~8 h. Each slide was then observed under the microscope for spore germination. Spores were considered to have germinated if the length of the germ tube was at least half the length of the spore. Afterward, spore germination was stopped by applying a drop of lactophenol-cotton blue to the inoculation sites on plates. The numbers of generated spores were counted under a microscope (Olympus BX61, Tokyo, Japan), and the percentage of germinated spores was calculated. Chlorothalonil was used as the positive control.

HepG2 cell line = experiment: Cytotoxic activity against human tumor cells line (HepG2); type: cell-based
C. lagenarium = experiment: Spore germination assay, fungicidal activity against C. lagenarium; type: cell-based, Colletotrichum lagenarium; conditions: Colletotrichum orbiculare
Description: as §1, §2

[1] = Table 1, from IC50 in μM, read-out: pIC50, C. lagenarium (converted)
[2] = Table 2, fungicidal activity against C. lagenarium used for QSAR, read-out: pIC50 (converted)
[3] = Table 4, experimental, C. lagenarium, read-out: Exp. pIC50 (converted)
[4] = Table 6, read-out: IC50 (μM) (against C. lagenarium)
[5] = in vitro, spore germination, n = 3, read-out: IC50, C. lagenarium

SMILES	IC50 (B. cinerea)	IC50 (HepG2 cell line)	IC50 (C. lagenarium; [1])	IC50 (C. lagenarium; [2])	IC50 (C. lagenarium; [3])	IC50 (C. lagenarium; [4])	IC50 (C. lagenarium; [5])	melting point
C=C1CC(c2ccccc2OC(=O)c2cccc(Cl)c2)OC1=O (stereo not shown) [Compound 5a, 4-[2-(3-Chlorobenzoyloxy)phenyl]-2-methylenebutyrolactone]	30.6 µM	28.4 µM	16.8 µM	16.8 µM	16.8 µM	16.8 µM	16.8 µM	201.3 to 201.8 °C
C=C1CC(c2ccccc2OC(=O)CCC)OC1=O (stereo not shown) [Compound 5m, 4-[2-(Butyryloxy)phenyl]-2-methylenebutyrolactone]	206 µM	23.8 µM	174 µM	174 µM	174 µM	174 µM	174 µM	–
C=C1CC(c2cccc(OC(=O)c3ccc(OC)cc3)c2)OC1=O (stereo not shown) [Compound 6l, 4-[3-(4-Methoxybenzoyloxy)phenyl]-2-methylenebutyrolactone]	179 µM	58.6 µM	154 µM	154 µM	154 µM	154 µM	154 µM	182.6 to 183.3 °C
C=C1CC(c2cccc(O)c2)OC1=O (stereo not shown) [Compound 6, 4-(3-Hydroxyphenyl)-2-methylenebutyrolactone]	140 µM	17.9 µM	117 µM	–	–	117 µM	117 µM	78 to 79 °C
C=C1CC(c2ccc(OC(=O)CC)cc2)OC1=O (stereo not shown) [Compound 4p, 4-[4-(Propionyloxy)phenyl]-2-methylenebutyrolactone]	237 µM	19.5 µM	207 µM	207 µM	207 µM	207 µM	207 µM	–
C=C1CC(c2cccc(OC(=O)c3cccc(Cl)c3)c2)OC1=O (stereo not shown) [Compound 6a, 4-[3-(3-Chlorobenzoyloxy)phenyl]-2-methylenebutyrolactone]	23.3 µM	30.2 µM	7.67 µM	7.67 µM	7.67 µM	7.68 µM	7.68 µM	205.7 to 206.4 °C
C=C1CC(c2cccc(OC(=O)c3ccccc3C)c2)OC1=O (stereo not shown) [Compound 6g, 4-[3-(2-Methylbenzoyloxy)phenyl]-2-methylenebutyrolactone]	180 µM	22 µM	159 µM	159 µM	159 µM	159 µM	159 µM	178.3 to 178.9 °C
C=C1CC(c2ccc(OC(=O)c3ccccc3)cc2)OC1=O (stereo not shown) [Compound 4i, 4-(4-Benzoyloxyphenyl)-2-methylenebutyrolactone]	112 µM	5.3 µM	95.3 µM	95.3 µM	95.3 µM	95.4 µM	95.4 µM	223.3 to 223.7 °C
C=C1CC(c2ccccc2OC(=O)c2ccccc2Br)OC1=O (stereo not shown) [Compound 5c, 4-[2-(2-Bromobenzoyloxy)phenyl]-2-methylenebutyrolactone]	34.6 µM	–	15.9 µM	15.9 µM	15.9 µM	–	15.9 µM	204.6 to 205.1 °C
C=C1CC(c2ccccc2OC(=O)c2ccc(Cl)cc2)OC1=O (stereo not shown) [Compound 5b, 4-[2-(4-Chlorobenzoyloxy)phenyl]-2-methylenebutyrolactone]	34.5 µM	–	17.7 µM	17.7 µM	17.7 µM	–	17.7 µM	208.7 to 209.3 °C
C=C1CC(c2cccc(OCCCC)c2)OC1=O (stereo not shown) [Compound 6o, 4-(3-Butoxyphenyl)-2-methylenebutyrolactone]	280 µM	> 108 µM	242 µM	242 µM	242 µM	242 µM	242 µM	–
C=C1CC(c2cccc(OC(=O)c3ccc(C)cc3)c2)OC1=O (stereo not shown) [Compound 6i, 4-[3-(4-Methylbenzoyloxy)phenyl]-2-methylenebutyrolactone]	164 µM	–	136 µM	136 µM	136 µM	–	137 µM	168.5 to 168.9 °C
C=C1CC(c2cccc(OC(=O)c3cccc(C)c3)c2)OC1=O (stereo not shown) [Compound 6h, 4-[3-(3-Methylbenzoyloxy)phenyl]-2-methylenebutyrolactone]	148 µM	–	126 µM	126 µM	126 µM	–	126 µM	177.6 to 178.2 °C
